Consider 17 compounds from patent publication US5622944A, “Testosterone prodrugs for improved drug delivery” (Affymax Technologies N.V., priority 1995, dated 1997).

The nature of data set [1]: in vitro. It is filed as in vitro ADME. The note with it: 37° C.; for half-life: human, serum. The procedure:
The hydrolytic activity of the sterol prodrug may be evaluated by studies of the chemical or enzymatic conversion of the prodrug to the unmodified parent compound, as described in Example 26.
Generally, the sterol/chemical modifier complex is dissolved in a minimum amount of a suitable solvent, such as ethanol, and the resulting solution is added to a sample of human serum. Following incubation, aliquots are then removed at various time points and analyzed to determine the extent of hydrolysis. Table I herein lists the representative serum half-lives of a number of testosterone prodrugs according to the present invention.
The rates of conversion are readily determined, for example by spectrophotometric methods or by gas-liquid or high performance liquid chromatography. Half-lives and other kinetic parameters may then be calculated using standard techniques.
Determination of Testosterone Prodrug Hydrolysis in Serum
Stock solutions (6 mM) of the testosterone prodrugs were prepared in ethanol (dissolution was accomplished by vortexing, sonication, or warming at 37° C., as needed). If required for dissolution, one drop of a co-solvent such as dimethylsulfoxide, dimethylformamide or methanol was added. (Acetonitrile is undesirable because it deactivates the serum enzymes).
HPLC separation methods were established for each study by dilution of the above stock solutions (6 μl) in acetonitrile (1 ml) to form 36 μM solutions. Samples (10 μl) were injected onto a Nucleosil 5C8 column (250×4 mm ID) fitted with an additional guard column (11×4 mm ID) and eluted with a mobile phase of approximately 65% HPLC grade water and 35% trifluoroacetic acid in acetonitrile (0.1% TFA in acetonitrile). Exact proportions of the mobile phase eluents were adjusted in each case to give optimum separation and run times.
Freshly defrosted human serum (3 ml, Sigma) was warmed at 37° C. for five minutes and then the testosterone prodrug stock solution (60 μl) was added with vortexing. […] The aliquots were added to 800 μl of 2% zinc sulfate solution in a 1.5 ml disposable microcentrifuge tube, vortexed immediately and centrifuged at 14,000 RPM for 3 minutes. The supernatants (10 μl) were injected onto the HPLC and peak areas used to determine the percent of parent drug formed or percent of prodrug remaining. Serum blanks were prepared similarly by addition of serum to the zinc sulfate solution, followed by centrifugation. Initial (time=0) samples were prepared by adding serum to the zinc sulfate solution, followed by addition of the complex and separation by centrifugation. The time=0 samples, as well as the original stock solutions, were also used to assess the stability of the complex in the absence of enzyme. Half-lives were determined using the following equation : […]
and plotting time (x ordinate) versus the natural logarithm of percent remaining prodrug (y ordinate) to obtain the slope (m) and the y intercept (b).

A short description of data set [2]: in vitro. It is filed as cell-based, human. The note with it: human, dermal fibroblasts, MTT; for CC50 at 2 h: IC50 2 h (cytotoxicity), 2 h incubation; for CC50 at 16 h: IC50 16 h (cytotoxicity), 16 h incubation. The protocol: As discussed above, the chemical modifier, when present in the subject in its free or released form, and in appropriately administered amounts, should preferably be non-toxic. Additionally, any further in vivo degradation products of the chemical modifier should be non-toxic, as well. Table 2 provides in vitro relative cytotoxicity data for a number of testosterone/chemical modifier complexes, prepared in accordance with the invention. The cytotoxicity assessment was carried out by examining the viability of human dermal fibroblasts in the presence of a number of testosterone/chemical modifier complexes in accordance with the present invention. Details of the experimental protocol are summarized in Example 27.
The viability of human dermal fibroblasts in the presence of the 17-hydroxy sterol/chemical modifier compounds was assayed using MTT (3-[4,5-dimethylthiazol-2-yl]-2,5-diphenyltetrazolium bromide) reduction to formazan by mitochondrial enzymes as an indicator of cytotoxicity (Swisher, et al.). Confluent fibroblast cells were incubated for 2 or 16 hours in the presence of increasing concentrations of drug complex. At the end of the incubation period, medium was replaced for 4 hours by medium containing the tetrazolium salt, MTT. Metabolism of MTT to a blue formazan was quantitated by spectrophotometry at 540 nm.

A short description of data set [3]: Water solubility (H2O sol). The note with it: for solubility: H2O sol.
The format of data set [4] is in vitro ADME, mouse. The settings on record: murine skin, active cells (ETm), 10 mM donor, 100 uA/cm^2, 6 h, 32° C. The procedure:
In vitro electrotransport of testosterone/chemical modifier complexes across hairless mouse skin was evaluated as described in Example 28. The experiments were conducted using modified Valia-Chien cells having 1.0 ml donor and 2.5 ml receptor cells. Anodic transport was carried out using a silver wire-based salt bridge in the donor compartment and a silver chloride cathode in the receptor. Cathodic transport was effected by reversing the electrode configuration. The cells were connected in series and a constant current and temperature were supplied to each cell.
After a predetermined period of time (6 h), aliquots were removed from the receiver phase for immediate analysis by HPLC to determine cumulative flux.
The electrotransport of testosterone/chemical modifier complexes was achieved using modified Valia-Chien cells (1.0 ml donor and 2.5 ml receptor cells). Full thickness, hairless mouse skin (Charles River Labs, Wilmington, Mass.) was soaked for one hour in phosphate buffered saline (PBS, pH=7.4) before placing between each compartment (dermal side of skin facing toward receptor). One passive (P1:data) and two or more (ETm :data) active cells were used to screen each compound.
A 10 mM (1 ml) aqueous solution of testosterone drug/prodrug was placed in the donor (unstirred) compartment and the receptor (stirred) was filled with 2.5 ml of PBS. In order to check for egress due to e.g. damaged skin, a zero hour sample of receptor ([…]) was taken one half hour after the drug solution was placed in the donor compartment. Replacement fluid of equal sample volume was added to the receptor compartment immediately after samples were taken.
Anodic electrotransport was achieved using a silver wire (immersed in a polyvinylalcohol-based salt bridge to minimize junction potential) in the donor compartment and a AgCl cathode in the receptor. […] The electrotransport cells were connected in series and constant current (100 uA/cm^2, […] for a skin area of 0.64 cm^2) and temperature (32° C.) were supplied to each cell. After six hours of active/passive transport, aliquots (200 ul) of the receptor were sampled and immediately analyzed by HPLC.
A standard plot of peak area and concentration for each compound was constructed using HPLC. The peak areas of the samples were determined and the concentrations calculated using the standard data. Cumulative flux was calculated using Quickbasic and reported in nmol/cm^2 /hr.

Where a name gives a salt, the structure may show the parent alone.

One may read the half-life as how long it takes for the measured level to halve. In general, CC50 refers to the concentration giving 50% cytotoxicity. A word on the solubility: it is the dissolved amount per volume that the medium holds. A high value points to a readily soluble substance.

With `C[n+]1ccccc1C(=O)O[C@H]1CC[C@H]2[C@@H]3CCC4=CC(=O)CC[C@]4(C)[C@H]3CC[C@]12C` [Code 4.0], the half-life was found to be 1.08 h in the data set “in vitro [1]” (HSO4^- salt) and 1.17 h in the data set “in vitro [1]” (iodide (I--) salt). In the data set “in vitro [2]”, it took 330 µM to reach half-maximal cytotoxicity (CC50 at 2 h). This compound also showed a CC50 at 16 h in the data set “in vitro [2]” of 41.1 µM. Also, the solubility in data set [3] was 0.9 mg/mL.
Consider `C[C@]12CC[C@H]3[C@@H](CCC4=CC(=O)CC[C@@]43C)[C@@H]1CC[C@@H]2O` [Code 1.0, 17β-hydroxyandrost-4-en-3-one, reference compound], for which, in the data set “in vitro [2]”, the CC50 at 2 h was > 1000 µM and the CC50 at 16 h was 423 µM. The same compound displayed a Degradation in “Degradation (%/d)” of 0 %/d. For the same compound, the H2O sol in data set [3] was 0.0 mg/mL.
In turn, `CC(=O)O[C@@H]1C[C@@H](C(=O)O[C@H]2CC[C@H]3[C@@H]4CCC5=CC(=O)CC[C@]5(C)[C@H]4CC[C@]23C)[N+](C)(C)C1` [Code 2.6, testosterone-17β-[(O-acetyl)-betonicinyl ester], chloride salt] gave a half-life in “in vitro [1]” (HPLC) of 8.2 h. In addition, in “in vitro [2]”, the midpoint of cytotoxicity, the CC50 at 2 h, lay at 733 µM and the CC50 at 16 h stood at 271 µM. Besides, the “Flux, active electrotransport (ET)” value in data set [4] was 0 nmol/cm^2 /hr. Moreover, the Degradation in the data set “Degradation (%/d)” was 0 %/d. Moreover, in data set [3], the solubility came to 21 mg/mL.
For the compound `CN(C)CCc1ccc(OC(=O)O[C@H]2CC[C@H]3[C@@H]4CCC5=CC(=O)CC[C@]5(C)[C@H]4CC[C@]23C)cc1` [Code 3.3, testosterone-17β-hordenine carbonate], in “in vitro [1]” (HPLC), the half-life is 8.2 h.
In the data set “in vitro [2]”, `CN(C)CCCC(=O)O[C@H]1CC[C@H]2[C@@H]3CCC4=CC(=O)CC[C@]4(C)[C@H]3CC[C@]12C` [Code 3.1, testosterone-17β-[4-N,N-dimethylaminobutyrate], hydrochloride salt] gave a CC50 at 2 h of 255 µM and a CC50 at 16 h of 145 µM. In data set [4], the “Flux, active electrotransport (ET)” value was 0.7 ± 0.2 nmol/cm^2 /hr. The compound further returned a Degradation in “Degradation (%/d)” of 0 %/d. The same compound came in with a solubility in data set [3] of 22 mg/mL.
On to `CN(C)CCCC(=O)O[C@H]1CC[C@H]2[C@@H]3CCC4=CC(=O)CC[C@]4(C)[C@H]3CC[C@]12C` [Code 3.0], for which the half-life in “in vitro [1]” (footnote 2: prodrug remaining, ~50% testosterone and ~50% unknown formed) was 106 h.
With `C[C@]12CC[C@H]3[C@@H](CC=C4C=C(OC(=O)CCC[N+](C)(C)C)CC[C@@]43C)[C@@H]1CC[C@@H]2OC(=O)CCC[N+](C)(C)C` [Code 4.3, testosterone-3-enol, 17β-ol bis[4-(N,N,N-trimethylammonio)butyrate], dibromide salt], the half-life in “in vitro [1]” (footnote 3: prodrug remaining, 60% [2.3] formed, no other products seen) was 7.8 h. The “Flux, active electrotransport (ET)” value in data set [4] is 1.0 ± 0.6 nmol/cm^2 /hr.
With `C[C@]12CC[C@H]3[C@@H](CC=C4C=C(OC(=O)CC[N+](C)(C)C)CC[C@@]43C)[C@@H]1CC[C@@H]2OC(=O)OCC[N+](C)(C)C` [Code 4.4, testosterone-3-enol, 17β-ol 3-(N,N,N-trimethyl-β-alanine ester) 17-(choline carbonate), dibromide salt], the half-life in the data set “in vitro [1]” (footnote 1: prodrug remaining, no testosterone formed) came to 0.0383 h. Moreover, the “Flux, active electrotransport (ET)” value in data set [4] amounted to 0.2 ± 0.0 nmol/cm^2 /hr.
Consider `C[C@]12CC[C@H]3[C@@H](CCC4=CC(=O)CC[C@@]43C)[C@@H]1CC[C@@H]2OC(=O)c1ccccn1` [Code 3.9, testosterone-17β-picolinate, hydrochloride salt], for which, in the data set “in vitro [1]” (HPLC), the half-life was 12.2 h.
For the compound `CCCCCCCCCCCCCCCC(=O)O[C@H](CC(=O)O[C@H]1CC[C@H]2[C@@H]3CCC4=CC(=O)CC[C@]4(C)[C@H]3CC[C@]12C)C[N+](C)(C)C` [Code 1.1, testosterone-17β-(O-palmitoyl-L-carnitinate), chloride salt], in the data set “in vitro [2]”, the CC50 at 2 h is < 10 µM and the CC50 at 16 h was < 10 µM. For the same compound, in data set [4], the “Flux, active electrotransport (ET)” value is listed as 0 nmol/cm^2 /hr. Also, in “Degradation (%/d)”, the Degradation is given as 0 %/d. For the same compound, in data set [3], the solubility stood at 26 mg/mL.
In the case of `COC(=O)[C@H](COC(=O)O[C@H]1CC[C@H]2[C@@H]3CCC4=CC(=O)CC[C@]4(C)[C@H]3CC[C@]12C)[N+](C)(C)C` [Code 1.9, testosterone-17β-(N,N,N-trimethyl-L-serine methyl ester) carbonate, tetrafluoroborate salt], the half-life in “in vitro [1]” (HPLC) was ~0.00125 h.
Compound `C[C@]12CC[C@H]3[C@@H](CCC4=CC(=O)CC[C@@]43C)[C@@H]1CC[C@@H]2OC(=O)OCOC(=O)CNC(=O)OCOC(=O)CCCCC[N+](C)(C)C` [Code 1.8] registered a half-life in “in vitro [1]” (HPLC) of 0.0667 h.
On to `COC(=O)[C@H](COC(=O)O[C@H]1CC[C@H]2[C@@H]3CCC4=CC(=O)CC[C@]4(C)[C@H]3CC[C@]12C)[N+](C)(C)C` [Code 2.0, testosterone-17β-(N,N,N-trimethyl-L-serine methyl ester) carbonate, bromide salt], for which the Serum half-life in the data set “in vitro [1]” (human serum, HPLC) came to 5 s.
Consider `COC(=O)[C@H](COC(=O)O[C@H]1CC[C@H]2[C@@H]3CCC4=CC(=O)CC[C@]4(C)[C@H]3CC[C@]12C)N(C)C` [Code 3.5], for which the half-life in the data set “in vitro [1]” (HPLC) was 0.783 h.
With `C[C@]12CC[C@H]3[C@@H](CCC4=CC(=O)CC[C@@]43C)[C@@H]1CC[C@@H]2OC(=O)CCC(=O)NCCS(=O)(=O)O` [Code 4.2, testosterone-17β-[taurinesuccinamide ester], triethvlammonium salt], the half-life in the data set “in vitro [1]” (HPLC) is 24 h. In data set [4], the “Flux, active electrotransport (ET)” value is reported as 2.8 ± 3.7 nmol/cm^2 /hr.
Take `C[C@]12CC[C@H]3[C@@H](CCC4=CC(=O)CC[C@@]43C)[C@@H]1CC[C@@H]2OC(=O)OCOC(=O)CC[N+](C)(C)C` [Code 2.1, testosterone-17β-(N,N,N-trimethyl-β-alaninyloxymethyl)carbonate,iodide salt]: the half-life in “in vitro [1]” (HPLC) was 0.0106 h.
`C[C@]12CC[C@H]3[C@@H](CCC4=CC(=O)CC[C@@]43C)[C@@H]1CC[C@@H]2OC(=O)c1cccnc1` [Code 2.7, Testosterone-17β-nicotinate]: the half-life in the data set “in vitro [1]” (HPLC) was ~840 h. Also, in the data set “in vitro [2]”, the CC50 at 2 h is > 1000 µM and the CC50 at 16 h was > 1000 µM. The same compound registered an H2O sol in data set [3] of 0.0 mg/mL.
